Data set [1] relates to Candida albicans. Briefly: Induction of cell death in Candida albicans CA5 at MIC measured after 2 hrs by concavaline-FITC/PI/DAPI-staining based fluorescence microscopic analysis relative to DMSO control. It is filed as functional.
Data set [2] concerns Candida albicans. As to the kind of experiment: Induction of membrane damage in Candida albicans CA5 at MIC measured after 2 hrs by concavaline-FITC/PI/DAPI-staining based fluorescence microscopic analysis relative to DMSO control. It is filed as functional.
A short description of data set [3]: Induction of membrane damage in PC/PS liposome assessed as calcein release at MIC after 30 mins by fluorescence-based liposome leakage assay. The class given is functional.
The species entered for data set [4] is Danio rerio. Briefly: Toxicity against zebrafish embryo assessed as effect on tail tip at 50 ug/ml measured at 96 hrs post fertilization by inverted microscopic analysis. The class given is organism-based. The note with it: in vivo.
The species entered for data set [5] is Danio rerio. As to the kind of experiment: Toxicity against zebrafish embryo assessed as growth retardation at 50 ug/ml measured at 96 hrs post fertilization by inverted microscopic analysis. It is filed as organism-based. The note with it: in vivo.
A short description of data set [6]: Hemolytic effect in sheep RBC assessed as release of hemoglobin at 10 ug/ml after 1 hr. The class given is ADME, cell-based, Ovis aries, Erythrocyte. The note with it: sheep red blood cells, read-out: Activity.
For data set [7], the species on record is Danio rerio. As to the kind of experiment: Toxicity against zebrafish embryo assessed as effect on eyes at 50 ug/ml measured at 96 hrs post fertilization by inverted microscopic analysis. It is filed as organism-based. The note with it: in vivo.
The species named for data set [8] is Danio rerio. Briefly: Toxicity against zebrafish embryo assessed as effect on otoliths at 50 ug/ml measured at 96 hrs post fertilization by inverted microscopic analysis. The class given is organism-based. The note with it: in vivo.
The subject of data set [9] is Danio rerio. Briefly: Toxicity against zebrafish embryo assessed as pericardial edema at 50 ug/ml measured at 96 hrs post fertilization by inverted microscopic analysis. The class given is organism-based. The note with it: in vivo.
The test system of data set [10] is Danio rerio. Briefly: Toxicity against zebrafish embryo assessed as yolk edema at 50 ug/ml measured at 96 hrs post fertilization by inverted microscopic analysis. The class given is organism-based. The note with it: in vivo.
Data set [11] is filed under the species Danio rerio. As to the kind of experiment: Toxicity against zebrafish embryo assessed as effect on heart beat at 50 ug/ml measured at 96 hrs post fertilization by inverted microscopic analysis. The class given is organism-based. The note with it: in vivo.
The species entered for data set [12] is Danio rerio. Briefly: Toxicity against zebrafish embryo assessed as effect on blood circulation at 50 ug/ml measured at 96 hrs post fertilization by inverted microscopic analysis. The class given is organism-based. The note with it: in vivo.
The species entered for data set [13] is Danio rerio. As to the kind of experiment: Toxicity against zebrafish embryo assessed as head malformation at 50 ug/ml measured at 96 hrs post fertilization by inverted microscopic analysis. The note with it: in vivo. The class given is organism-based.
Data set [14] is filed under the species Danio rerio. As to the kind of experiment: Toxicity against zebrafish embryo assessed as skeletal deformities at 50 ug/ml measured at 96 hrs post fertilization by inverted microscopic analysis. The class given is organism-based. The note with it: in vivo.

Here are results for two compounds from ChEMBL document CHEMBL3763135, “Synthesis and evaluation of thiophene-based guanylhydrazones (iminoguanidines) efficient against panel of voriconazole-resistant fungal isolates” (Bioorg Med Chem, 2016).

The source made the active and inactive calls. The calls are words filed in the database; no cut-off is given here.

Regarding `Cc1ccc(-c2ccc(/C=N/NC(=N)N)s2)cc1.Cl`, the outcome in the data set on Candida albicans [1] was inactive.
With `Cl.Cl.N=C(N)N/N=C/c1ccc(-c2ccc(/C=N/NC(=N)N)s2)cc1`, the Activity was 20% with Candida albicans [2]; 8% in data set [3]; 0% in the data set listed under Danio rerio [4]; 0% in the data set filed under Danio rerio [5]; 0% in the data set filed under Danio rerio [7]; 0% in the data set filed under Danio rerio [8]. Besides, the Activity with Danio rerio [9], with Danio rerio [10], in the data set listed under Danio rerio [11], in the data set listed under Danio rerio [12], in the data set filed under Danio rerio [13] and in the data set filed under Danio rerio [14] was 0% throughout. Further, the hemolysis at 1 h, 10 ug/ml in data set [6] was found to be 20%.
